{"source": "patent US6930185B2", "about": "“Melanin-concentrating hormone antagonist” (Takeda Chemical Industries, Ltd., priority 2000, dated 2005)", "data": [{"values": [{"compound": "Cc1ccc(C2CCN(C(=O)Nc3ccc4nc(CN5CCCCC5)ccc4c3)CC2)cc1", "note": "[Example 64, 4-(4-Methylphenyl)-N-[2-(1-piperidinylmethyl)-6-quinolinyl]-1-piperidinecarboxamide]", "melting point": "204 to 205 °C (dec.)"}, {"compound": "O=C(Nc1ccc2nc(CN3CCCCC3)ccc2c1)N1CCC(c2ccc(F)cc2)CC1", "note": "[Example 65, 4-(4-Fluorophenyl)-N-[2-(1-piperidinylmethyl)-6-quinolinyl]-1-piperidinecarboxamide]", "melting point": "203 to 204 °C (dec.)"}, {"compound": "O=C(Nc1ccc2nc(CN3CCCCC3)ccc2c1)c1ccc(-c2ccc(F)cc2F)nc1", "note": "[Example 69, 6-(2,4-Difluorophenyl)-N-[2-(1-piperidinylmethyl)-6-quinolinyl]nicotinamide]", "melting point": "182 to 183 °C"}, {"compound": "CC1(C)CCCC(C)(C)N1Cc1ccc2cc(NC(=O)c3ccc(-c4ccc(Cl)cc4)nc3)ccc2n1", "note": "[Example 72, 6-(4-Chlorophenyl)-N-[2-[(2,2,6,6-tetramethyl-1-piperidinyl)methyl]-6-quinolinyl]nicotinamide]", "melting point": "258 to 259 °C"}, {"compound": "Cc1ccc(-c2ccc(C(=O)Nc3ccc4nc(CN5C(C)(C)CCCC5(C)C)ccc4c3)cn2)cc1", "note": "[Example 73, 6-(4-Methylphenyl)-N-[2-[(2,2,6,6-tetramethyl-1-piperidinyl)methyl]-6-quinolinyl]nicotinamide]", "melting point": "246 to 247 °C"}, {"compound": "CC1(C)CCCC(C)(C)N1Cc1ccc2cc(NC(=O)N3CCC(c4ccc(Cl)cc4)CC3)ccc2n1", "note": "[Example 74, 4-(4-Chlorophenyl)-N-[2-[(2,2,6,6-tetramethyl-1-piperidinyl)methyl]-6-quinolinyl]-1-piperidinecarboxamide]", "melting point": "203 to 204 °C"}, {"compound": "Cc1ccc(C2CCN(C(=O)Nc3ccc4nc(CN5C(C)(C)CCCC5(C)C)ccc4c3)CC2)cc1", "note": "[Example 75, 4-(4-Methylphenyl)-N-[2-[(2,2,6,6-tetramethyl-1-piperidinyl)methyl]-6-quinolinyl]-1-piperidinecarboxamide]", "melting point": "200 to 202 °C"}, {"compound": "C[C@@H]1CCC[C@H](C)N1Cc1ccc2cc(NC(=O)c3ccc(-c4ccc(F)cc4)cc3)ccc2n1", "note": "[Example 79, 4′-Fluoro-N-[2-[(cis-2,6-dimethyl-1-piperidinyl)methyl]-6-quinolinyl][1,1′-biphenyl]-4-carboxamide]", "melting point": "187 to 188 °C"}, {"compound": "C[C@@H]1CCC[C@H](C)N1Cc1ccc2cc(NC(=O)c3ccc(-c4ccccc4)cc3)ccc2n1", "note": "[Example 80, N-[2-[(cis-2,6-Dimethyl-1-piperidinyl)methyl]-6-quinolinyl][1,1′-biphenyl]-4-carboxamide]", "melting point": "180 to 181 °C"}, {"compound": "Cc1ccc(-c2ccc(C(=O)Nc3ccc4nc(CN5[C@H](C)CCC[C@@H]5C)ccc4c3)cc2)cc1", "note": "[Example 81, 4′-Methyl-N-[2-[(cis-2,6-dimethyl-1-piperidinyl)methyl]-6-quinolinyl][1,1′-biphenyl]-4-carboxamide]", "melting point": "198 to 199 °C (dec.)"}, {"compound": "C[C@@H]1CCC[C@H](C)N1Cc1ccc2cc(NC(=O)c3ccc(-c4ccc(Cl)cc4)nc3)ccc2n1", "note": "[Example 83, 6-(4-Chlorophenyl)-N-[2-[(cis-2,6-dimethyl-1-piperidinyl)methyl]-6-quinolinyl]nicotinamide]", "melting point": "217 to 219 °C (dec.)"}, {"compound": "Cc1ccc(C2CCN(C(=O)Nc3ccc4nc(CN5[C@H](C)CCC[C@@H]5C)ccc4c3)CC2)cc1", "note": "[Example 86, 4-(4-Methylphenyl)-N-[2-[(cis-2,6-dimethyl-1-piperidinyl)methyl]-6-quinolinyl]-1-piperidinecarboxamide]", "melting point": "177 to 178 °C (dec.)"}, {"compound": "CC1=NCCN1Cc1ccc2cc(NC(=O)c3ccc(-c4ccccc4)cc3)ccc2n1", "note": "[Example 93, N-[2-[(2-Methyl-4,5-dihydro-1H-imidazol-1-yl)methyl]-6-quinolinyl][1,1′-biphenyl]-4-carboxamide]", "melting point": "212 to 220 °C (dec.)"}, {"compound": "O=C(Nc1ccc2nc(CN3CCN=C3c3ccccc3)ccc2c1)c1ccc(-c2ccccc2)cc1", "note": "[Example 94, N-[2-[(2-Phenyl-4,5-dihydro-1H-imidazol-1-yl)methyl]-6-quinolinyl][1,1′-biphenyl]-4-carboxamide]", "melting point": "212 to 216 °C (dec.)"}, {"compound": "O=C(Nc1ccc2cc(CN3CCCC3)ccc2c1)N1CCC(c2ccc(F)cc2)CC1", "note": "[Example 99, 4-(4-Fluorophenyl)-N-[6-(1-pyrrolidinylmethyl)-2-naphthyl]-1-piperidinecarboxamide]", "melting point": "209 to 211 °C"}, {"compound": "COc1ccc(C2CCN(C(=O)Nc3ccc4cc(CN5CCCC5)ccc4c3)CC2)cc1", "note": "[Example 100, 4-(4-Methoxyphenyl)-N-[6-(1-pyrrolidinylmethyl)-2-naphthyl]-1-piperidinecarboxamide]", "melting point": "194 to 196 °C"}, {"compound": "O=C(Nc1ccc2cc(CN3CCCC3)ccc2c1)N1CCC(c2ccccc2)CC1", "note": "[Example 102, 4-Phenyl-N-[6-(1-pyrrolidinylmethyl)-2-naphthyl]-1-piperidinecarboxamide]", "melting point": "193 to 195 °C"}, {"compound": "Cc1ccc(C2CCN(C(=O)Nc3ccc4cc(CN5CCCC5)ccc4c3)CC2)cc1", "note": "[Example 103, 4-Methylphenyl-N-[6-(1-pyrrolidinylmethyl)-2-naphthyl]-1-piperidinecarboxamide]", "melting point": "210 to 212 °C"}, {"compound": "O=C(Nc1ccc2nc(CN3CCCCC3c3cccnc3)ccc2c1)c1ccc(-c2ccc(Cl)cc2)cc1", "note": "(centres unmarked) [Example 116, 4′-Chloro-N-[2-[[2-(3-pyridinyl)-1-piperidinyl]-methyl]-6-quinolinyl][1,1′-biphenyl]-4-carboxamide]", "melting point": "124 to 126 °C (dec.)"}, {"compound": "COC[C@@H]1CCCN1Cc1ccc2cc(NC(=O)c3ccc(-c4ccc(Cl)cc4)cc3)ccc2n1", "note": "[Example 117, 4′-Chloro-N-[2-[[(2S)-2-(methoxymethyl)pyrrolidinyl]-methyl]-6-quinolinyl][1,1′-biphenyl]-4-carboxamide]", "melting point": "172 to 174 °C"}, {"compound": "CC(C)(C)OC(=O)[C@@H]1CCCN1Cc1ccc2cc(NC(=O)c3ccc(-c4ccc(Cl)cc4)cc3)ccc2n1", "note": "[Example 118, Tert-butyl (2S)-1-[[6-[[(4′-chloro[1,1′-biphenyl]-4-yl)carbonyl]amino]-2-quinolinyl]methyl]-2-pyrrolidinecarboxylate]", "melting point": "163 to 166 °C"}, {"compound": "COc1ccc(C2CCN(C(=O)Nc3ccc4cc(CN5C(C)(C)CCCC5(C)C)ccc4c3)CC2)cc1", "note": "[Example 119, 4-(4-Methoxyphenyl)-N-[6-[(2,2,6,6-tetramethyl-1-piperidinyl)methyl]-2-naphthyl]-1-piperidinecarboxamide]", "melting point": "164 to 166 °C"}, {"compound": "COc1ccc(-c2ccc(C(=O)Nc3ccc4cc(CN5C(C)(C)CCCC5(C)C)ccc4c3)cc2)cc1", "note": "[Example 120, 4′-Methoxy-N-[6-[(2,2,6,6-tetramethyl-1-piperidinyl)methyl]-2-naphthyl][1,1′-biphenyl]-4-carboxamide]", "melting point": "212 to 214 °C"}, {"compound": "CC1(C)CCCC(C)(C)N1Cc1ccc2cc(NC(=O)c3ccc(-c4ccc(F)cc4)cc3)ccc2c1", "note": "[Example 121, 4′-Fluoro-N-[6-[(2,2,6,6-tetramethyl-1-piperidinyl)methyl]-2-naphthyl][1,1′-biphenyl]-4-carboxamide]", "melting point": "238 to 241 °C"}, {"compound": "Cc1ccc(-c2ccc(C(=O)Nc3ccc4cc(CN5C(C)(C)CCCC5(C)C)ccc4c3)cc2)cc1", "note": "[Example 122, 4′-Methyl-N-[6-[(2,2,6,6-tetramethyl-1-piperidinyl)methyl]-2-naphthyl][1,1′-biphenyl]-4-carboxamide]", "melting point": "235 to 237 °C"}, {"compound": "CC1(C)CCCC(C)(C)N1Cc1ccc2cc(NC(=O)c3ccc(-c4ccc(Cl)cc4)cc3)ccc2c1", "note": "[Example 123, 4′-Chloro-N-[6-[(2,2,6,6-tetramethyl-1-piperidinyl)methyl]-2-naphthyl][1,1′-biphenyl]-4-carboxamide]", "melting point": "244 to 246 °C"}, {"compound": "CC(C)N(Cc1ccc2cc(NC(=O)c3ccc(-c4ccc(Cl)cc4)cc3)ccc2c1)C(C)C", "note": "[Example 124, 4′-Chloro-N-[6-[(diisopropylamino)methyl]-2-naphthyl][1,1′-biphenyl]-4-carboxamide]", "melting point": "246 to 250 °C"}, {"compound": "CC(C)N(Cc1ccc2cc(NC(=O)c3ccc(-c4ccccc4)cc3)ccc2n1)C(C)C", "note": "[Example 133, N-[2-[(Diisopropylamino)methyl]-6-quinolinyl][1-1′-biphenyl]-4-carboxamide]", "melting point": "208 to 209 °C"}, {"compound": "COc1ccc(-c2ccc(C(=O)Nc3ccc4nc(CN(C(C)C)C(C)C)ccc4c3)cc2)cc1", "note": "[Example 134, N-[2-[(Diisopropylamino)methyl]-6-quinolinyl]-4′-methoxy[1-1′-biphenyl]-4-carboxamide]", "melting point": "223 to 225 °C"}, {"compound": "CC(C)N(Cc1ccc2cc(NC(=O)c3ccc(-c4ccc(F)cc4)cc3)ccc2n1)C(C)C", "note": "[Example 135, N-[2-[(Diisopropylamino)methyl]-6-quinolinyl]-4′-fluoro[1-1′-biphenyl]-4-carboxamide]", "melting point": "207 to 209 °C"}, {"compound": "Cc1ccc(-c2ccc(C(=O)Nc3ccc4nc(CN(C(C)C)C(C)C)ccc4c3)cc2)cc1", "note": "[Example 136, N-[2-[(Diisopropylamino)methyl]-6-quinolinyl]-4′-methyl [1-1′-biphenyl]-4-carboxamide]", "melting point": "225 to 227 °C"}, {"compound": "Cc1ccc(-c2ccc(C(=O)Nc3ccc4nc(CN(C(C)C)C(C)C)ccc4c3)cn2)cc1", "note": "[Example 137, N-[2-[(Diisopropylamino)methyl]-6-quinolinyl]-6-(4-methylphenyl)nicotinamide]", "melting point": "211 to 213 °C"}, {"compound": "CC(C)N(Cc1ccc2cc(NC(=O)c3ccc(-c4ccc(Cl)cc4)nc3)ccc2n1)C(C)C", "note": "[Example 138, 6-(4-Chlorophenyl)-N-[2-[(diisopropylamino)methyl]-6-quinolinyl]nicotinamide]", "melting point": "201 to 203 °C"}, {"compound": "Cc1ccc(C2CCN(C(=O)Nc3ccc4nc(CN(C(C)C)C(C)C)ccc4c3)CC2)cc1", "note": "[Example 139, N-[2-[(Diisopropylamino)methyl]-6-quinolinyl]-4-(4-methylphenyl)-1-piperidinecarboxamide]", "melting point": "184 to 186 °C"}, {"compound": "CC(C)N(Cc1ccc2cc(NC(=O)N3CCC(c4ccc(Cl)cc4)CC3)ccc2n1)C(C)C", "note": "[Example 140, 4-(4-Chlorophenyl)-N-[2-[(diisopropylamino)methyl]-6-quinolinyl]-1-piperidinecarboxamide]", "melting point": "201 to 203 °C"}]}]}
